Measurements reported in US8492614B2, “Plant biochemical systems and uses thereof” (The Board of Trustees of the University of Illinois, priority 2007, dated 2013).
Entries after “also recorded” stand apart in the source; their conditions may differ.

Assays:
[1] = tested on: etiolated soybean seedlings; test: Soybean seedlings irradiated with low fluence UV, grown with or without phenylalanine in the growth media; format: in vivo, soybean (Glycine max L.); settings: for protection from the effects of high energy UV (lack of seed development, seed death): 1 mM phenylalanine in growth media, low fluence 300, 305, 311 or 317 nm on day 3 after planting
Text: Three varieties, Williams, Forrest, and Williams 82, serve as the progenitor germplasms used in many US soybean breeding programs. These germplasms were used in the experiments described in the Examples, and representative data is shown. In general soybean experiments are done using etiolated seedlings irradiated 3 days after planting or 7 days after planting, in contrast to the regime (6 days dark growth) used for Arabidopsis experiments. For the soybean experiments we have used a high intensity light source filtered through narrow band pass for a low fluence radiation dose of (10^4 μmol m^−2), with (10 nm half band width) filters of peak pass-through at 300, 305, 311, 317, 325, 332 and 368 nm. Soybean primary leaves are sensitive to UV, with the greatest damage occurring in response to irradiation with the greatest energy (smallest wavelength). Three day old etiolated wild type Williams, Forest and Williams 82 soybean seedlings of were individually irradiated with a single low fluence pulse of 300, 305, 311, 317, 325, 332, 368 nm or no light (as a control). After irradiation seedlings were maintained in a summer day-night cycle (14 hr white light: 10 hr dark) to allow for photoreactivation and other forms of light mediated repair until day 8. Irradiation with 300, 305 or 311 nm light results in a “severe” damage with a greater then 70% mortality rate by day 8 (FIGS. 9,10). Irradiation with 317 or 325 nm results in a ‘moderate’ response, with a mortality of approximately 20%. […] Seedlings irradiated with 300, 317 or 368 nm light, or no UV light (as a control) were assessed 3, 7, 14, 21 and 28 days post planting. […] The very young seedlings were able to use the phenylalanine in the growth media to supplement the limiting amounts available in the seed to produce a larger quantity of UV screening pigments, and perhaps other compounds important to UV protection, thereby protecting themselves against the UV itself and perhaps enacting enhanced repair functions after the UV irradiation. […]

[2] = tested on: etiolated Arabidopsis seedlings; test: Cotyledon natural fluorescence by deconvoluting microscopy; format: in vivo; settings: 1.0 mM Phe in medium; salt stress; mutant seedlings; listed as Phe
Experimental: Fluorescent images were obtained of living unfixed seedlings 24 h post BL or ABA treatment as described in the “Plant Growth and Preparation of Tissue” section. Optical sectioning was achieved by using a Zeiss Axiovert 200M microscope (Carl Zeiss), equipped with ApoTome (collected by grid projection), and a digital camera and the 4#,6-diamino-phenylindole, fluorescein isothiocyanate, and Texas Red filter sets (Chroma). Photographs of whole cotyledon fluorescence were snapped on the same microscope set up, minus the apoTome setting.
The preparation of whole cell extracts from the areal portions of the seedlings for the quantification of Phe levels and PD1 activity levels is described in (Warpeha et al., Plant Physiol. 143:1590-1600, 2007). Phe concentration is determined by HPLC. […] Natural fluorescence of the cotyledons is visualized and quantitated by deconvoluting microscopy using a “DAPI-Long Pass” filter which allows excitation between 300-380 nm and emits with a cutoff […] 400 nm.
If the Phe produced by activated PD1 is necessary for the ability of young etiolated seedlings to respond to UV-B, salt or heat stress, then it is possible that the addition of exogenous Phe (effectively cross feeding Phe) could restore a wild type response to GCR1, GPA1 and PD1 mutants when assayed for cotyledon fluorescence and the ability to survive sub-lethal levels of UV-C. To determine if exogenous Phe can restore wild type responses to GCR1, GPA, and PD1 mutants, 1 mM Phe is added to the top agar during planting and the experiment described above specifically testing for cotyledon surface fluorescence and the ability to survive sub-lethal levels of UV-C is repeated. Serine and […] are used as negative controls in these assays.
The experiments described above for examining if GCR1, GPA1 and PD1 are required for young etiolated seedlings to respond to UV-B, salt or heat stress are performed but with ABA, ACC, JA and SA substituting for UV-B, salt and heat. For these experiments, ABA is tested at 1.0 μM dissolved in ethanol and applied as an atomized mist. […]

## N[C@@H](Cc1ccccc1)C(=O)O [phenylalanine]
[1]; 1.0 mM Phe in growth media, seven d post-irradiation
  growth characteristics after UV irradiation: restores growth characteristics regardless of UV wavelength
[1]
  protection from the effects of high energy UV (lack of seed development, seed death): able to ameliorate the most negative of the effects of high energy UV
[1]; listed as Phe
  protection from the effects of high energy UV (lack of seed development, seed death): can overcome the most deleterious effects of high energy UV in soybean
[2]
  restoration of cotyledon surface fluorescence in mutants: can restore the responses in the mutants to those observed for wild type seedlings; also recorded: can restore wild type responses to AGB1 and AGG1 mutants
